From BigSolDB 2.1

O=P1(O)Oc2ccc3ccccc3c2-c2c(ccc3ccccc23)O1
solubility (mole fraction)
Conditions	288.15 K	293.15 K	298.15 K	303.15 K	308.15 K	313.15 K	318.15 K	323.15 K	328.15 K	333.15 K
in ethanol	0.00444	0.00462	0.00489	0.00511	0.00533	0.00544	0.00573	0.00601	0.00632	0.00664
in ethyl acetate	0.000286	0.000331	0.000387	0.000434	0.000491	0.000521	0.000555	0.000594	0.000618	0.000645
in isobutanol	0.0035	0.00381	0.0041	0.0045	0.00491	0.00531	0.00575	0.00622	0.00672	0.00738
in isopropanol	0.00339	0.00354	0.0038	0.00404	0.00445	0.00491	0.00563	0.00656	0.00763	0.00891
in methanol	0.00336	0.00347	0.00373	0.00411	0.00452	0.00486	0.0052	0.00555	0.00607	0.00658
in n-butanol	0.00698	0.00709	0.0073	0.00763	0.00802	0.00844	0.00887	0.00932	0.00996	0.0107
in n-propanol	0.00484	0.0053	0.00588	0.00652	0.00731	0.00832	0.00942	0.0106	0.0123	0.0142
